{
  "source": "patent US11692175B2",
  "about": "“Methods for generation of pluripotent and multipotent cells” (The USA, as represented by the Secretary, Dept. of Health …, priority 2012, dated 2023)",
  "key": {"HUVEC [1]": {"system": "HUVEC", "test": "EB formation of HUVEC in serum free medium", "format": "cell-based, human", "settings": "after 3-6 days", "description": "(§1) A new vial of HUVEC at passage 1 was thawed and split in to two 25 cm^3 Nunc tissue culture flasks. One flask (P1) was treated with CD47-MO (2.5 μM). The other was kept as untreated. The HUVEC were transferred in to new Nunc tissue culture flask 75 cm^3 and cultured for 2 weeks using EGM2 medium. After 2 weeks, the HUVEC (untreated and CD47-MO treated) were assessed for generation of EBs, neural differentiation, and cardiomyocytes differentiation. […] Direct Neural Differentiation media: Equal numbers of HUVEC cells (untreated and cd47-mo) were cultured with neural basal media (same for mouse lung endothelial cells) for 6 days. […] After 6 days, the neural basal media was replaced with neural differentiation media (same used for mouse lung endothelial cells). None of the untreated HUVEC survived."}, "CD47": {"system": "CD47", "test": "In vivo morpholino knockdown of CD47 in WT mice", "parameters": "species or system mouse", "settings": "for Oct4 mRNA level in spleen / Sox2 mRNA level in spleen / c-Myc mRNA level in spleen: at 48 hours, WT mice; for CD47 protein expression in vivo: intraperitoneal injection into WT mice", "description": "(§2) RNA extraction and Real Time PCR: Total RNA was extracted using TRIzol® reagent (Invitrogen, Rockville, Md.) 24-36 hours after transfection or as indicated. Harvested mouse tissues were frozen in liquid nitrogen or placed into RNA Later™ RNA Stabilization Reagent (Ambion, Life Technologies, Grand Island, N.Y.). Whole organs (lungs, spleen, kidney, testis, skeletal muscle, brain, heart, and liver) were homogenized in TRIzol® reagent, and RNA was isolated, cDNA was prepared using First Maxima First Strand cDNA Synthesis kit for RT-qPCR (Fermentas Life Sciences, Glen Burnie, Md.). Real Time PCR was performed using the primers listed herein as SEQ ID NOs: 3-34, and SYBR Green PCR master reaction mix (AB applied Sciences, Life Technologies, Grand Island, N.Y.) on an MJ Research OPTICON I instrument (Bio-Rad) with the following amplification program: 95° C. for 15 minutes, followed by 40 cycles of 95° C. for 15 seconds, 58° C. for 20 seconds, 72° C. for 25 seconds, and 7° C. for 1 minute. Melting curves were performed for each product from 30° C. to 95° C. reading every 0.5° C. with a 6-second dwell time. The fold changes in mRNA expression were calculated by normalizing to hypoxanthine phosphoribosyltransferase (HPRT1) and TATA-box binding protein associated factor (TAF9) for mouse tissues and endothelial cells, or β-2 microglobulin (B2M) mRNA levels for spleen and isolated splenocytes. B2M was used for normalization of mRNA levels in human cells. Note that the total RNA yield per cell was higher for all CD47-null and CD47-deficient cells and tissues as compared to WT.\nCD47 knockdown in T cells and in WT mice: A translation-blocking antisense morpholino oligonucleotide complementary to human and murine CD47 ([…]; SEQ ID NO: 35) and a 5-base mismatch control morpholino (CGTgACAGcCAcGACCgACTGCgCA; SEQ ID NO: 36) were obtained from GeneTools, LLC (Philomath, Oreg.) as previously described (Isenberg et al., Circ Res 100, 712-720, 2007). Primary T cells isolated from c-Myc EGFP knock-in mouse were transfected using morpholinos (2.5 μM) along with Endo-porter (GeneTools, LLC) delivery reagent according to manufacturer's instructions. Mice were treated by injection of 750 μl of 10 μM morpholino in saline as described (Maxhimer et al., Sci. Transl. Med. 1, 3ra7, 2009). Organs were harvested for mRNA isolation after 48 hours."}, "[2]": {"system": "WT splenic T cells from c-Myc-EGFP knock-in mice", "test": "c-Myc mRNA after CD47 morpholino knockdown in T cells", "format": "cell-based, mouse", "description": "as §2, with “B2M was used for normalization of mRNA levels in human cells. Note that the total RNA yield per cell was higher for all CD47-null and CD47-deficient cells and tissues as compared to WT.” left out"}, "HUVEC [3]": {"system": "HUVEC", "test": "Direct neural differentiation of HUVEC", "format": "cell-based, human", "description": "(§3) Therefore, antisense suppression of CD47 is sufficient to induce reprogramming of primary endothelial cells of a mesodermal lineage into an ectodermal lineage.\nas §1"}, "HUVEC [4]": {"system": "HUVEC", "test": "Sustained proliferation / self-renewal of HUVEC in continuous culture", "format": "cell-based, human", "excerpt": "Human umbilical vein endothelial cells (HUVEC), which express CD47, normally become senescent with repeated passage in tissue culture (FIG. 16A).\nas §3"}, "HUVEC [5]": {"system": "HUVEC", "test": "Direct cardiomyocyte differentiation of HUVEC", "format": "cell-based, human", "description": "Finally, equal numbers of HUVEC (untreated and cd47-mo treated at passage 1) were plated in 6-well plates with EGM2 media for 24 hours. The next day, EGM2 medium was replaced with cardiomyocyte differentiation media (Millipore). […] CD47-MO cells survived up to 10 days. Thus, antisense suppression of CD47 is sufficient to induce reprogramming of primary endothelial cells into cardiomyocyte lineage."}, "HUVEC [6]": {"system": "HUVEC", "test": "MTS proliferation assay of treated HUVEC", "format": "cell-based, human", "description": "Cell proliferation assays: Equal numbers of mouse lung endothelial cells from WT and CD47 (Passage 1) were plated in 96 well plates using RPMI+1% FBS. After 72 hours, net cell proliferation was assessed by the increase in formazan absorbance versus controls assessed at time 0 using Cell Titer 96R aqueous MTS kit (Promega, Madison, Wis.). DNA synthesis was measured using a BrdU Assay (EMD Biosciences, Billerica, Mass.).\nProliferative capacities of the treated HUVEC (CD47 morpholino, 7N3 peptide, or 604 control peptide) were assessed using MTS assays."}},
  "data": [
    {"sequence": "CGTCACAGGCAGGACCCACTGCCCA (all phosphorodiamidate morpholino (PMO)) [CD47 morpholino]", "values": [
      {"measurement": "cell aggregation in serum free medium", "setting": "HUVEC [1]", "result": "formed different phenotype cell aggregation"},
      {"measurement": "Oct4 mRNA level in spleen", "setting": "CD47", "result": "induction"},
      {"measurement": "Sox2 mRNA level in spleen", "setting": "CD47", "result": "induction"},
      {"measurement": "c-Myc mRNA level in spleen", "setting": "CD47", "result": "induction"},
      {"measurement": "Oct4 mRNA level in spleen", "setting": "CD47; listed as CD47-MO", "result": "elevates"},
      {"measurement": "Sox2 mRNA level in spleen", "setting": "CD47; listed as CD47-MO", "result": "elevates"},
      {"measurement": "c-Myc mRNA level in spleen", "setting": "CD47; listed as CD47-MO", "result": "elevates"},
      {"measurement": "CD47 protein expression in vivo", "setting": "CD47", "result": "significantly decreased"},
      {"measurement": "CD47 protein expression in vivo", "setting": "CD47; listed as CD47-morpholino", "result": "knockdown"},
      {"measurement": "increase in c-Myc mRNA level", "setting": "[2]; at 24 h, morpholino 2.5 μM", "result": 7, "unit": "fold"},
      {"measurement": "c-Myc mRNA expression (FIG. 6A)", "setting": "[2]; in words, legend says WT lung endothelial cells", "result": "increases"},
      {"measurement": "survival in neural basal media", "setting": "HUVEC [3]; 6 days, CD47-MO 2.5 μM", "result": "survived better than untreated"},
      {"measurement": "phenotype in neural differentiation media", "setting": "HUVEC [3]; after 6 days neural basal media", "result": "exhibited neural phenotype"},
      {"measurement": "appearance of cells with neuronal phenotypes", "setting": "HUVEC [3]; direct transfer into neural differentiation medium", "result": "sporadic appearance of cells with neuronal phenotypes"},
      {"measurement": "survival in neural differentiation media", "setting": "HUVEC [3]; numbers were low", "result": "up to 15 days"},
      {"measurement": "self-renewal", "setting": "HUVEC [4]; antisense CD47 morpholino at 2.5 μM, one treatment", "result": "enabled self-renewal"},
      {"measurement": "proliferative response after second treatment", "setting": "HUVEC [4]; second treatment, same concentration (2.5 μM)", "result": "enhanced proliferative response"},
      {"measurement": "survival in cardiomyocyte differentiation media", "setting": "HUVEC [5]", "result": "up to 10 days"},
      {"measurement": "survival and differentiation in cardiomyocyte differentiation media", "setting": "HUVEC [5]; untreated HUVEC unable to survive after 3 days", "result": "survived and underwent differentiation"},
      {"measurement": "proliferation (MTS)", "setting": "HUVEC [6]; 3 weeks post-treatment, relative to control HUVEC", "result": "significantly increased proliferation"},
      {"measurement": "proliferation (MTS)", "setting": "HUVEC [6]; 6 days post-treatment", "result": "slight but not significant enhancement of proliferation"}
    ]}
  ]
}
